In patent US8362031B2, “Lonidamine analogues and treatment of polycystic kidney disease” (University of Kansas, priority 2004, dated 2013):

Assays:
[1] = target: Hsp82 (the yeast homologue of Hsp90) (Saccharomyces cerevisiae, UniProt P02829); test: Cross-linking of biotinylated analogue to purified protein, competition with excess RC-MC-110; assay type: binding; conditions: 10-fold excess of RC-MC-110, purified protein, UV cross-linking
Protocol: In this example, the binding of cross-linked biotinylated RC-MC-110 ([…]) to Hsp82 (the yeast homologue of Hsp90) was investigated by a cross-linking and biotinylated analogue of RC-MC-110.
The buffer solution in this examples was comprised of 50 mM Tris-HCl, pH 7.4, 50 mM NaCl, 5 mM EDTA, and 50 mM NaF.
First, the protein was diluted with the buffer solution above to give a final concentration of 0.278 mg/ml. The stock protein concentration was 22 mg/ml in 5 μl aliquots.
Next the drug was diluted as follows. Stock concentrations of RC-MC-210 (see structure below) were 0.6 mg/ml (cross-linked biotinylated analogue of RC-MC-110). A 300 μl aliquot was thawed, and separated into two 150 μl aliquots. Dilutions were in the order of 1, ½, ¼, ⅛, 1/16 of the stock solutions. The stock concentration of the competition solution was 0.6 mg/ml RC-MC-210 (549 μM), and about 0.9 mg of RC-MC-110 was dissolved in 150 μl of RC-MC-210 solution to give a final concentration of 6 mg/ml (14.5 mM).
The competition solution had the same concentration of RC-MC-210, but a 10-fold excess of RC-MC-110 (non-biotinylated) to its respective concentration (e.g: ½ RC-MC-210, then the RC-MC-110 was 10× that concentration.)
To prepare of the incubation reactions, 18 μl of protein from a 0.277 mg/ml diluted stock (about 5 μg of protein) was incubated with 2 μl of drug for 1 hr at 4° C. with gentle rocking. […]

[2] = tested on: Salmonella Typhimurium TA 100; test: Ames test for mutagenicity (plate assay, colony count); conditions: 48 hours at 37° C.
[3] = tested on: NKCC1; test: Immunostaining of organ culture kidney sections; assay type: cell-based, mouse; conditions: 1-5 uM, cAMP-treated E15.5 organ culture kidneys, images not shown
Protocol: To also test whether GMZ can target the Hsp90 client protein NKCC1, sections of E15.5 organ culture kidneys treated with cAMP or cAMP plus GMZ were immunostained with an antibody for NKCC1 (methods in Magenheimer, et al., 2006). […] Consistent with the known localization of NKCC1 in the kidney, the immunolabeling appeared to be decreased in the metanephric mesenchyme and collecting ducts when GMZ was used at 1-5 uM.

[4] = tested on: PCNA (proliferating cell nuclear antigen); test: Immunostaining of organ culture kidney sections; assay type: cell-based, mouse; conditions: not shown
Text: Since GMZ affects Hsp90 client proteins involved in cell proliferation, it was hypothesized that GMZ could also be inhibiting cell proliferation in the metanephric organ cultures. To test this idea, organ culture sections were immunostained with an antibody to PCNA (proliferating cell nuclear antigen), a marker of cell proliferation.

[5] = tested on: pcy mouse; test: In vivo treatment of the pcy mouse; conditions: 1 mg/kg IP, three times weekly from 5-20 weeks of age, after 12 weeks of treatment
Text: The Pkd1 gene is orthologous to the gene involved in ˜85% of human ADPKD cases. […] Biol Reprod. 78(6):1139-52 (2008). If so, it could be reducing the levels of the Hsp90 client proteins, CFTR and NKCC1, both important for cyst-filling chloride secretion. Evidence is shown here that NKCC1 protein levels were reduced by GMZ treatment of metanephric kidneys in organ culture. Evidence was also shown for decreased PCNA levels, which is consistent with a general decrease in cell proliferation in these kidneys in organ culture, due probably to Hsp90 inhibition. The efficacy of GMZ on inhibition of cyst growth in vivo is currently being tested in the pcy mouse, a mouse model of nephronophthisis-3 (NPHP3) which has a slowly progressive renal cystic disease. […] Accordingly, gamendazole inhibits cell proliferation and cAMP-stimulated cyst-like expansion (in metanephric organ cultures). The mechanisms may involve: a direct and rapid inhibition of forskolin-stimulated CFTR channel activity; inhibition of Hsp90 chaperone function leading to long-term reduction of NKCC1 protein levels; or reduction of PKD proliferation pathway components. Thus, GMZ appears to be a potent inhibitor of these two important processes involved in PKD pathogenesis.

[6] = tested on: rats; test: Animal tolerance studies of GMZ; assay type: in vivo, rat
Text: The parent compound of GMZ, Lonidamine, inhibits the chloride channel CFTR, interferes with cellular energy output and has been used as an anticancer drug. […] GMZ binds directly to Hsp90-beta and eukaryotic elongation factor eEF1A as shown by affinity chromatography and direct binding studies.

Sequence of Hsp82 (the yeast homologue of Hsp90) (P02829 whole entry): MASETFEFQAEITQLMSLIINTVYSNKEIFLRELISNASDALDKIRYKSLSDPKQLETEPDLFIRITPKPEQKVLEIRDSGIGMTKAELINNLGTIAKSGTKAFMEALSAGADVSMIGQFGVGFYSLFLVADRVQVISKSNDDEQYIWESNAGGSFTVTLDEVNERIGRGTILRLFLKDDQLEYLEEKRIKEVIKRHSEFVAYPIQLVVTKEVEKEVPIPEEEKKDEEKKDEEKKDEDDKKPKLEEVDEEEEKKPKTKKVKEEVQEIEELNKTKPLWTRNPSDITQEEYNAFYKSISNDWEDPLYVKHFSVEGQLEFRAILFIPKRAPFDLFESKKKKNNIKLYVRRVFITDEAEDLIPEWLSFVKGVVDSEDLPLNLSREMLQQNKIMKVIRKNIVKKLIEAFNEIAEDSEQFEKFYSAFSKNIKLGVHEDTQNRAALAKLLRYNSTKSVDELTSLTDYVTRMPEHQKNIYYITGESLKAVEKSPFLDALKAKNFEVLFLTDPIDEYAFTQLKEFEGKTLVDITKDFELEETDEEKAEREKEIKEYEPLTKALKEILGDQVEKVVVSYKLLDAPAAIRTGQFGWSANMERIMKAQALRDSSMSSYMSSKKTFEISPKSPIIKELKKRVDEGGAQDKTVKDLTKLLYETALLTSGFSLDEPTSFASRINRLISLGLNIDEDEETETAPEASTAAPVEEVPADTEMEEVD

SMILES | Competition of the binding of the cross-linked biotinylated analogue to Hsp82 [1] | Ames test (+)S9 0.1 mg/pl. ([2]; (+)S9 mix, 0.1 mg/pl.) | Ames test (+)S9 1 mg/pl. ([2]; (+)S9 mix, 1 mg/pl.) | Ames test (+)S9 10 mg/pl. ([2]; (+)S9 mix, 10 mg/pl.) | Ames test (−)S9 0.1 mg/pl. ([2]; (−)S9 mix, 0.1 mg/pl.) | Ames test (−)S9 1 mg/pl. ([2]; (−)S9 mix, 1 mg/pl.) | Ames test (−)S9 10 mg/pl. ([2]; (−)S9 mix, 10 mg/pl.) | NKCC1 staining [3] | PCNA staining [4] | Tolerability in the pcy mouse [5] | histopathology ([6]; 25 mg/kg of IP dosage) | behavioral or body weight changes ([6]; rats, five days post-treatment)
O=C(O)/C=C/c1nn(Cc2ccc(Cl)cc2Cl)c2cc(C(F)(F)F)ccc12 [RC-MC-110, trans 3-[1-(2,4-dichlorobenzyl)-6-trifluoromethyl-1H-indazol-3-yl]-acrylic acid] | the binding competes with excess RC-MC-110 | Pass | Pass | Pass | Pass | Pass | Pass |  |  |  |  | 
O=C(O)CCc1nn(Cc2ccc(Cl)cc2Cl)c2cc(C(F)(F)F)ccc12 [GMZ, 3-[1-(2,4-dichlorobenzyl)-6-trifluoromethyl-1H-indazol-3-yl]-propionic acid] |  |  |  |  |  |  |  | NKCC1 staining was reduced | overall less staining, and fewer tubule cells staining for PCNA | the treated mice appear to be tolerating GMZ | no apparent histopathology in any organ | no evidence of behavioral or body weight changes
